From patent US10391201B2, “Gene therapy” (Ospedale San Raffaele S.r.l., priority 2014, dated 2019)

Tested on: CB-derived CD34+ cells
Assay: LV replication intermediates (late-RT, 2LTR circles, integrated copies) in CB-derived CD34+ cells
Type: cell-based, human
Method: (§1) CsA and rapamycin act on distinct steps on the LV life cycle. […] The LV genome fate was tracked by measuring late-RT product (A) and 2LTR circles (B) 24 hours after transduction and integrated proviral copies 2 weeks after transduction (C). Data represent the mean±SEM of four independent experiments expressed as fold versus DMSO WT (A,B) or as absolute copies/cell (C). D. IDLV transduction efficiency was measured 3 days after transduction by FACS and by measuring the retrotranscribed LV DNA products by PCR. Data are the mean±SEM of three independent experiments. P values are for one-way with Bonferonni's multiple comparison. *P<0.05, **P<0.01, ****P<0.0001.
as §1, with “FACS (left panel)” for “FACS”, “PCR (right panel).” for “PCR.”, “P values are for one-way with Bonferonni's multiple comparison. *P<0.05, **P<0.01, ****P<0.0001.” left out
To analyse viral replication intermediates, transduced cells were washed and resuspended in Monini lysis buffer (0.1% polyoxyethylene 10 lauryl ether (Sigma), 0.1 mg/mL proteinase K (Promega)) (25 μL per 1×10^5 cells), incubated at 65° C. for 2 h and heat inactivated at 94° C. for 15 min (Monini, P. et al. (1999) Blood 93: 4044-58). […] Late-RT and 2LTR circles were measured by semi-quantitative Taqman assay with primers described below and normalised using the human TERT gene. Results are expressed as fold versus the DMSO control, as described above.
DNA from cell cultures was extracted using a Maxwell 16 instrument (Promega) or Blood & Cell Culture DNA Micro Kit (Qiagen). […] Vector copy numbers and replication intermediates were normalised to genomic DNA content, which was assessed using the human TERT gene. […]

CO[C@H]1C[C@@H]2CC[C@@H](C)[C@@](O)(O2)C(=O)C(=O)N2CCCC[C@H]2C(=O)O[C@H]([C@H](C)C[C@@H]2CC[C@@H](O)[C@H](OC)C2)CC(=O)[C@H](C)/C=C(\C)[C@@H](O)[C@@H](OC)C(=O)[C@H](C)C[C@H](C)/C=C/C=C/C=C/1C [rapamycin, Rapamycin]
2-long-terminal-repeat (2LTR) circles vs DMSO (10 μg/ml rapamycin, 24 hours after transduction): consequent increase | late-RT products vs DMSO, independently of the CA (WT, A88T or A92E LV, 10 μg/ml rapamycin, 24 hours after transduction): two to threefold increase | integrated vector (proviral) copies vs DMSO (all vectors, 2 weeks after transduction): increase
